One compound from patent US12215234B2, “Process for the purification of methylene blue” (RK Pharma Solutions LLC, priority 2019, dated 2025) can be followed below.

What all share (format): physicochemical
Series [1] in a line: Stability study of methylene blue at about 40° C. (40/75), six months. The settings on record: stability at 40° C., Trial 1-3. As for the experimental part: (§1) Methylene blue product obtained by this process is then loaded for stability at about 20-25° C. and at about 40° C. Purity and metal content of Methylene blue is tested for up to six months.
Series [2] in a line: Stability study of methylene blue at about 20-25° C. (25/60), six months. Set-up: Highest Unknown / Total impurities / Azure B / Azure C: unit not given here. Particulars: stability at 25° C., Trial 1-3. As for the experimental part: as §1
A short description of series [3]: pH of formulation containing methylene blue made by the prior-art process. Particulars: methylene blue by process of Fundamental Processes of Dye Chemistry, isolated in the range of 3.0-4.5; pH increases. An excerpt: Desired pH for the methylene blue formulation as per USP is in between 3.0-4.5.
Another area of concern is pH of formulated methylene blue. USP mentions that pH of methylene blue formulation should be in between about 3.0 to about 4.5. In formulation, pH of Methylene blue solution tends to increase drastically when the pH of the active pharmaceutical ingredient (API) is kept in between about 3.0 to about 4.5 as per prior art process. To overcome such a problem, the reaction mass pH is preferably kept less than about 2 and more preferably pH of less than about 1. Suitable acids for the adjustment of pH to below about 1 includes, but is not limited to, hydrochloric acid.

Molecules are shown by their SMILES. Several values for one entry are separate records, joined by “and”; a condition that tells them apart may be missing. Identical values can stand only once.

Regarding `CN(C)c1ccc2nc3ccc(N(C)C)cc3[s+]c2c1` [Methylene blue, 3,7-bis(dimethylamino)phenothiazin-5-ylium chloride], the “Azure B” value in series [1] (impurity, 6M 40/75) is 2.41 and 2.26; in series [2] (impurity, 6M 25/60) it was 2.37 and 2.2 and 2.17. Also, the “Azure C” value in series [1] (impurity, 6M 40/75) came to 0.01; in series [2] (impurity, 6M 25/60) it was 0.01. Further, the “Metal Content Mn” value in series [1] (6M 40/75) was 0.49 ppm and 0.51 ppm; in series [2] (6M 25/60), 0.68 ppm and 0.61 ppm and 0.48 ppm. For the same compound, the Total impurities is 2.5 and 2.46 and 2.52 in series [1] (6M 40/75); 2.46 and 2.4 and 2.44 in series [2] (6M 25/60). Besides, the Total metal content was 74.97 ppm and 62.91 ppm and 62.48 ppm in series [1] (6M 40/75, sum of Al, Cr, Cu, Mn, Zn); 76.51 ppm and 75.6 ppm and 57.41 ppm in series [2] (6M 25/60, sum of Al, Cr, Cu, Mn, Zn). Besides, the Purity in series [1] (profile 6M 40/75) is 97.5 and 97.54 and 97.48; in series [2] (profile 6M 25/60) it was 97.54 and 97.6 and 97.56. Besides, in series [2] (impurity, 6M 25/60), the “Highest Unknown” value is 0.04 and 0.06 and 0.08. The “pH of the formulation containing methylene blue” value in series [3] was “above 4.5”.
